According to patent US20090137565A1, “Method for treatment of movement disorders” (The Trustees of Columbia University in the City of New York, priority 2004, published 2009):

Key:
[1] = tested on: severe posthypoxic myoclonus
From the text: After obtaining verbal consent from the patient and their spouse, they were given approximately six ounces of wine to drink (alcohol content 14% by volume). […] They were videotaped before and after the trial with alcohol.

[2] = tested on: severe posthypoxic myoclonus; experiment: Earlier trials of anti-myoclonic medications in the Example 1 patient (case history); conditions: for reason for intolerance / adverse effect: human, in vivo
From the text: The patient was referred to the Columbia University Medical Center Movement Disorder Center for evaluation of severe posthypoxic myoclonus at the age of 37. […] Back-averaged EEGs and somatosensory evoked potentials were not available.

[3] = approximately six ounces of wine
[4] = Example 1 patient, before the trial

| Compound | outcome of trials of anti-myoclonic medications [2, 4] | reason for intolerance / adverse effect [2] | also measured |
| --- | --- | --- | --- |
| CCO [alcohol] |  |  | duration of anti-myoclonic effect [1, 3]: resolved in several hours; effect on myoclonus [1, 3]: dramatic improvement in myoclonus; time to improvement in myoclonus ([1]; approximately six ounces of wine (alcohol content 14% by volume)): ≤ 30 min |
| O=C1CN=C(c2ccccc2Cl)c2cc([N+](=O)[O-])ccc2N1 [clonazepam] | only minimally successful |  | dose-limiting side effect [2, 4]: dose-limiting sedation; effect on severity of myoclonus [2, 4]: partially improved |
| CC[C@@H](C(N)=O)N1CCCC1=O [levetiracetam] | only minimally successful |  |  |
| CC1(C)O[C@@H]2[C@@H](CO[C@@]3(COS(N)(=O)=O)OC(C)(C)O[C@@H]23)O1 [topiramate] | only minimally successful |  |  |
| CCCC(CCC)C(=O)O [valproic acid] | only minimally successful | drop in platelet count |  |
| NS(=O)(=O)Cc1noc2ccccc12 [zonisamide] | only minimally successful | anorexia |  |
